From EP0917465B1, “ANTIMALARIAL AND ANTI-BABESIOSIS AGENTS AND PHARMACEUTICAL COMPOSITIONS CONTAINING THE SAME AGENTS” (priority 1996, dated 1998)
Like-named read-outs stand apart in the source and are kept apart here.

Legend:
[1] = system: Babesia Bovis, Babesia Canis; experiment: In vitro anti-Babesia activity, (3H) hypoxanthine incorporation; format: cell-based; settings: read-out: Activité/ Babesia à 10 millimole
Description: Le procédé de criblage d'activité anti-malaria, basé sur l'incorporation de l'(^3H) Hypoxanthine par le parasite, est utilisé pour tester l'activité anti-métabolique de tels composés sur Babesia Bovis, Babesia Canis. Une relation étroite est trouvée entre le taux d'incorporation de (^3H) Hypoxanthine dans une mesure standard et le pourcentage de cellules parasitées, déterminé par examen microscopique. Cette activité métabolique est quantifiée et évaluée dans le tableau ci-dessous par la cotation +++ pour les molécules affichant dans le test une inhibition de 50 % de l'incorporation de (^3H) Hypoxanthine (ID 50), ces molécules étant à une concentration inférieure ou égale à 0,01 Micromolaire. La cotation est de ++ pour la même activité à une concentration de 0,01 à 0.1 micromolaire et enfin de + pour une concentration inférieure ou égale à 1 Micromolaire.

Plasmodium falciparum = experiment: In vitro antimalarial activity, (3H) hypoxanthine incorporation in infected human erythrocytes (Desjardins test); format: cell-based; settings: read-out: IC50 exprimée en micromoles
Description: L'activité antipaludéenne des dérivés selon les exemples précédents est testée sur l'humain infesté par Plasmodium falciparum. Le produit à tester est mis en contact avec les érythrocytes humains infectés pendant 24 heures. Un précurseur radioactif d'acides nucléiques l'Hypoxanthine (^3H) est ensuite ajouté. Le précurseur ne s'incorpore que dans les cellules infectées par un parasite en croissance, c'est à dire dans les cellules que la drogue n'aura pas affectées.
L'aptitude ou non à incorporer le précurseur reflète donc la viabilité des cellules impaludées. La durée des tests est de 60 à 70 heures ( test de DESJARDINS R.E. , CANFIELD C.J., HATNES J.D. et CHULAY J.D., Antimicrob. Agents Chemother. 1979, 16, p 710-718 ). Les résultats sont consignés dans le tableau I ci-après, sous forme de IC50 (ou DE50), soit la concentration de produit dans le milieu expérimental capable d'inhiber in vitro la croissance du parasite d'une valeur de 50%.

[2] = system: Plasmodium vinckei, petteri, ou chabaudi; experiment: Therapeutic index in infected mice: 4-day Peters test activity versus semi-chronic toxicity (DL 50); format: in vivo, souris Swiss mâles; settings: ratio of activity to toxicity under identical conditions, intraperitoneal or subcutaneous, twice a day for 4 days
Description: Afin d'évaluer l'index thérapeutique des divers produits, on a mesuré l'activité de ceux-ci dans un test in vivo et comparé à la toxicité aiguë chez l'animal . Cette activité est mesurée suivant le test décrit par PETERS W. ( Chemotherapy and Drug résistance in Malaria, 1970). Un composé est administré pendant quatre jours consécutifs à des souris préalablement impaludées par Plasmodium vinckei, petteri, ou chabaudi, ledit composé étant dissous dans une solution de NaCI à 0.9 %. Les préparations sont ainsi administrées par voie intrapéritonéale ou par voie sous-cutanée à des souris Swiss mâles infectées par voie IV, avec Plasmodium petterei ou Plasmodium chabaudi (10^6 cellules infectées ). Le composé est administré deux fois par jour pendant 4 jours consécutifs, la première injection étant pratiquée 2 heures après l'infestation et la deuxième, 10 heures après. La parasitémie est déterminée par un frottis, le jour suivant la fin du traitement. La toxicité est mesurée in vivo selon la même méthode, les animaux ayant reçu dans les conditions d'administration ci-dessus, 2 injections par jour pendant 4 jours ( toxicité semi chronique). Les résultats sont exprimés sous forme de DL 50, soit la dose ayant entraîné la mort de 50% des animaux.
Les résultats des essais sont résumés dans le tableau I ci-après sous forme d'index thérapeutique, soit le rapport de l'activité à la toxicité mésurées dans des conditions identiques comme décrit ci-dessus.

[3] = class of ID 50 for (3H) hypoxanthine incorporation
[4] = Plasmodium falciparum, Erythrocyte, concentration inhibiting in vitro parasite growth by 50 %, human erythrocytes infected with Plasmodium falciparum, 24 h contact, test lasts 60 to 70 h
[5] = Plasmodium falciparum, Erythrocyte
[6] = concentration inhibiting in vitro parasite growth by 50 %, human erythrocytes infected with Plasmodium falciparum, 24 h contact, test lasts 60 to 70 h

Compound | IC50 [1, 3] | IC50 (Plasmodium falciparum; [4]) | other results
CCC[N+](C)(CC)CCCCCCCCCCCCCCCCCC[N+](C)(CC)CCC (stereo not drawn) [EXEMPLE 5, N,N'-dimethyl-N,N'-diethyl-N,N'-dipropyl-1,18-octadecanediaminium, dibromure] | < 10 nM | 1 nM | –
CC[N+](C)(CC)CCCCCCCCCCCCCCCC[N+](C)(CC)CC [EXEMPLE 13, N,N'-dimethyl-N,N,N',N'-tetraethyl-1,16-hexadecanediaminium, dibromure] | < 10 nM | 0.5 nM | –
C[N+]1(CCCCCCCCCCCCCC[N+]2(C)CCCC2)CCCC1 [EXEMPLE 16, 1,1'-(1,14-tetradecanediyl) bis (1-methylpyrrolidinium) dibromure] | – | – | Index thérapeutique [2]: 8; IC50 [1]: < 10 nM; IC50 (Plasmodium falciparum; [5]): 0.9 nM
CCC[N+](C)(CC)CCCCCCCCCCCCCCCCCCCC[N+](C)(CC)CCC (stereo not drawn) [EXEMPLE 6, N, N'-dimethyl-N, N'-diethyl-N, N'-dipropyl-1,20-eicosanediaminium, dibromure] | 10 to 100 nM | 3 nM | –
C#CCC[N+](C)(C)CCCCCCCCCCCCCC[N+](C)(C)CCC#C [EXEMPLE 26, N,N'-di (3-butynyl)-N, N, N', N'-tetramethyl 1,14-tetradecanediaminium dibromure] | – | – | Index thérapeutique [2]: 45; IC50 [1]: 10 to 100 nM; IC50 (Plasmodium falciparum; [5]): 40 nM
C=CC[N+](C)(C)CCCCCCCCCCCCCC[N+](C)(C)CC=C [EXEMPLE 25, N,N'-di (2-propenyl)-N,N,N',N'-tetramethyl-1,14 tetradecane diaminium dibromure] | – | – | Index thérapeutique [2]: 15; IC50 [1]: < 10 nM; IC50 (Plasmodium falciparum; [5]): 5 nM
CCC[N+](CCC)(CCO)CCCCCCCCCCCCCC[N+](CCC)(CCC)CCO [EXEMPLE 27, N, N'-di-(2-hydroxyethyl) -N, N, N', N'-tetrapropyl-1, 14 tetradecane diaminium dibromure] | 10 to 100 nM | 10 nM | –
CC[N+](C)(CC)CCCCCCCCCCCCCCCCCCCCC[N+](C)(CC)CC [EXEMPLE 15, N,N'-dimethyl-N,N,N',N'-tetraethyl-1,21-heneicosanediaminium, dibromure] | < 10 nM | 0.003 nM | –
CCC[N+](C)(CC)CCCCCCCCCCCCCCCC[N+](C)(CC)CCC (stereo not drawn) [EXEMPLE 3, N.N'-dimethyl-N.N'-diethyl-N, N'-dipropyl-1,16-exadecanediaminium, dibromure] | 10 to 100 nM | 3 nM | –
C[N+]1(CCCCCCCCCCCCCCCC[N+]2(C)CCOCC2)CCOCC1 [EXEMPLE 21, 1,1'-(1.16-hexadecanediyl) bis (1-methylmorpholinium) dibromure] | < 10 nM | 1 nM | –
CCC[N+](CCC)(CCC)CCCCCCCCCCCCCCCCCCCCCCCC[N+](CCC)(CCC)CCC [EXEMPLE 11, N, N, N, N', N', N' hexapropyl-1,24-tetracosanediaminium, dibromure] | 100 to 1000 nM | 1600 nM | –
CCC[N+](CCC)(CCC)CCCCCCCCCCCCCCCC[N+](CCC)(CCC)CCC [EXEMPLE 12, N, N, N, N', N', N' hexapropyl-1,16-hexadecanediaminium, dibromure] | 10 to 100 nM | – | IC50 (Plasmodium falciparum; [6]): 1 nM
CCCCCCCCCCCC[N+](C)(C)CCCCCCCCCCCCCCCC[N+](C)(C)CCCCCCCCCCCC [EXEMPLE 22, N,N'-didodecyl-N,N,N',N'-tetramethyl- 1,16 hexadecanediaminium dibromure] | 10 to 100 nM | 1000 nM | –
CC[N+](C)(CC)CCCCCCCCCCCCCCCCCC[N+](C)(CC)CC [EXEMPLE 14, N,N'-dimethyl-N,N,N',N'-tetraethyl-1,18 octadecanediaminium, dibromure] | – | – | Index thérapeutique [2]: 14; IC50 [1]: < 10 nM; IC50 (Plasmodium falciparum; [5]): 0.04 nM
CCC[N+](CCC)(CCC)CCCCCCCCCCCCCCCC[N+](CCC)(CCC)CCC [EXEMPLE 9, N, N, N, N', N', N' hexapropyl-1, 16-hexadecanediaminium, dibromure] | < 10 nM | – | IC50 (Plasmodium falciparum; [6]): 7 nM
C[N+]1(CCCCCCCCCCCCCCCC[N+]2(C)CCCC2)CCCC1 [EXEMPLE 17, 1,1-(1,16-hexadecanediyl) bis (1-methylpyrrolidinium) dibromure] | < 10 nM | – | IC50 (Plasmodium falciparum; Erythrocyte, concentration inhibiting in vitro parasite growth by 50 %, human erythrocytes infected with Plasmodium falciparum, 24 h contact, test lasts 60 to 70 h): 0.6 nM
CCC[N+](CCC)(CCCCCCCCCCCCCC[N+](CCC)(CCC)CCOCC)CCOCC [EXEMPLE 28, N, N'-di-(2-ethoxyethyl)-N, N, N', N'-tetrapropyl-1, 14 tetradecanediaminium dibromure] | < 10 nM | 10 nM | –
CCC[N+](CCC)(CCC)CCCCCCCCCCCCCCCCCCCC[N+](CCC)(CCC)CCC [EXEMPLE 10, N, N, N, N', N', N' hexapropyl-1,20-eicosanediaminium, dibromure] | 100 to 1000 nM | 700 nM | –
CCCCCCCCCCCC[N+](C)(C)CCCCCCCCCCCCCCCCCC[N+](C)(C)CCCCCCCCCCCC [EXEMPLE 23] | 100 to 1000 nM | 100 nM | –
CCC[N+](CCC)(CCO)CCCCCCCCCCCCCCCC[N+](CCC)(CCC)CCO [EXEMPLE 29, N, N'-di-(2-hydroxyethyl) -N, N, N', N'-tetrapropyl-1, 1 6 hexadecane diaminium dibromure] | 10 to 100 nM | 5 nM | –
CCC[N+](C)(CC)CCCCCCCCCCCCCCCCCCCCCC[N+](C)(CC)CCC (stereo not drawn) [EXEMPLE 7, N,N'-dimethyl-N, N'-diethyl-N, N'-dipropyl-1,22-Cosanediaminium, dibromure] | 10 to 100 nM | 10 nM | –
CCC[N+](CCC)(CCC)CCCCCCCCCCCCCC[N+](CCC)(CCC)CCC [EXEMPLE 8, N, N, N, N', N', N' hexapropyl-1, 14-tetradecanediaminium, dibromure] | 100 to 1000 nM | 100 nM | –
CCC[N+](C)(CC)CCCCCCCCCCCCCCC[N+](C)(CC)CCC (stereo not drawn) [EXEMPLE 2, N,N'-dimethyl-N, N'-diethyl-N, N'-dipropyl-1, 15-pentadecanediaminium, dibromure] | 100 to 1000 nM | 10 nM | –
CCC[N+](CCC)(CCO)CCCCCCCCCCCCCCCCCCCC[N+](CCC)(CCC)CCO [EXEMPLE 30, N, N'-di-(2-hydroxyethyl)-N, N, N', N'-tetrapropyl-1,20-eicosanediaminium dibromure] | < 10 nM | 0.3 nM | –
C#CC[N+](C)(C)CCCCCCCCCCCCCC[N+](C)(C)CC#C [EXEMPLE 24, N,N'-di (2-propynyl)-N,N,N',N'-tetramethyl-1,14-tetradecane diaminium dibromure] | 10 to 100 nM | 7 nM | –
CCC[N+](C)(CC)CCCCCCCCCCCCCC[N+](C)(CC)CCC (stereo not drawn) [EXEMPLE1, N, N'-dimethyl-N, N'-diethyl-N, N'-dipropyl-1, 14 tetradecanediaminium, dibromure] | 10 to 100 nM | 10 nM | –
C[N+]1(CCCCCCCCCCCCCCCCCCCCCC[N+]2(C)CCCC2CO)CCCC1CO (stereo not drawn) [EXEMPLE 19, 1,1'-(1,22-docosanediyl) bis (2-hydroxymethyl1-methylpyrrolidinium) dibromure] | 100 to 1000 nM | 70 nM | –
CCC[N+](C)(CC)CCCCCCCCCCCCCCCCC[N+](C)(CC)CCC (stereo not drawn) [EXEMPLE 4, N,N'-dimethyl-N, N'-diethyl-N, N'-dipropyl-1, 17-heptadecanediaminium, dibromure] | 10 to 100 nM | 2 nM | –
